In patent US20060069132A1, “Azolecarboxamide herbicides” (priority 2004, published 2006):

How the values were obtained:
[1] = system: large crabgrass; assay: Test A pre-/postemergence herbicide test; assay type: in vivo, Digitaria sanguinalis; conditions: for Plant response rating, Crabgrass, Large: Postemergence; for Crabgrass, Large plant response rating: Preemergence
Summary of the method: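 Plants are held in greenhouse about ten days after treatment, then compared with untreated controls and scored 0 (no effect) to 100 (complete control). Preemergence dosing is a directed soil spray on sown sandy loam; postemergence dosing is spray to runoff at 2–10 cm height.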

[2] = system: blackgrass; assay: Test B postemergence herbicide test; assay type: in vivo, Alopecurus myosuroides; conditions: scale 0 (no effect) to 100 (complete control); for Plant response rating, Blackgrass: visual rating after 13 to 15 days
Summary of the method: (§1)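 Plants grow to 1- to 4-leaf stage (2–18 cm) for postemergence spraying, or to 2-leaf stage for the paddy test. Formulated compound is applied. Greenhouse holding lasts 13–15 days. Response is scored visually relative to controls, 0 no effect to 100 complete control; a dash means no result.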

[3] = system: ducksalad; assay: Test B flooded paddy test; assay type: in vivo, Heteranthera limosa; conditions: 1000 g ai/ha, visual rating, scale 0 to 100 (0 no effect, 100 complete control), 13 to 15 days
Summary of the method: as §1

[4] = system: cocklebur; assay: Test C pre-/postemergence herbicide test; assay type: in vivo, Xanthium strumarium
Summary of the method: (§2)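 Greenhouse-grown plants were evaluated visually 12 to 14 days after treatment, with 100 meaning complete control and 0 no effect. Application was preemergence, or postemergence at 2 to 18 cm.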

[5] = system: giant foxtail; assay: Test C pre-/postemergence herbicide test; assay type: in vivo, Setaria faberi; conditions: for Foxtail, Giant plant response rating: 500 g ai/ha
Summary of the method: as §2

[6] = system: johnsongrass; assay: Test C pre-/postemergence herbicide test; assay type: in vivo, Sorghum halepense; conditions: for Johnsongrass plant response rating: 500 g ai/ha
Summary of the method: as §2

[7] = system: common ragweed; assay: Test C pre-/postemergence herbicide test; assay type: in vivo, Ambrosia elatior; parameters: key to Plant response rating, Ragweed: 0 = no effect, 100 = complete control; conditions: for Ragweed plant response rating: 500 g ai/ha
Summary of the method: as §2

[8] = system: common (oilseed) sunflower; assay: Test C pre-/postemergence herbicide test; assay type: in vivo, Helianthus annuus; conditions: for Sunflower plant response rating: Preemergence, 500 g ai/ha, scale 0 to 100, 0 no effect, 100 complete control
Summary of the method: as §2

[9] = system: rice; assay: Test C flooded paddy test; assay type: in vivo, Oryza sativa; conditions: for Plant response rating, Rice: visual rating after 12 to 14 days
Summary of the method: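 Plants were grown to the 1- to 4-leaf stage (2–18 cm) and then treated postemergence, or grown to the 2-leaf stage for the flooded paddy test. They were held in a greenhouse for 12 to 14 days and then scored by eye against controls, where 0 is no effect and 100 is complete control.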

[10] = system: rice; assay: Test B pre-/postemergence herbicide test; assay type: in vivo, Oryza sativa
Summary of the method: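 Pre: seeds sown, then sprayed. Post: 1–4-leaf plants (2–18 cm) sprayed at the same time. Paddy: flooded, treated at 2-leaf stage. Formulation: non-phytotoxic solvent with surfactant. Greenhouse 13–15 days; visual 0–100 score relative to controls.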

[11] = 2000 g ai/ha, 0 to 100 scale, 0 no effect, 100 complete control
[12] = 125 g ai/ha, scale 0 (no effect) to 100 (complete control), visual, 12 to 14 days, preemergence
[13] = 250 g ai/ha, scale 0 to 100 (0 no effect, 100 complete control), visual, 12 to 14 days, preemergence
[14] = Postemergence, 500 g ai/ha, scale 0 to 100
[15] = Postemergence, 125 g ai/ha, scale 0 to 100, 0 no effect, 100 complete control
[16] = Postemergence, 250 g ai/ha, scale 0 to 100, 0 no effect, 100 complete control
[17] = Preemergence, 500 g ai/ha, scale 0 to 100, 0 no effect, 100 complete control
[18] = postemergence, 62 g ai/ha, scale 0 to 100
[19] = Preemergence, scale 0 to 100, 0 no effect, 100 complete control

C#CCNC(=O)c1cccc(NC(=O)c2cc(C(C)(C)C)nn2CC)c1 [Compound 47]
Plant response rating, Crabgrass, Large ([1]; 500 g ai/ha, 0 to 100 scale, 0 no effect, 100 complete control): 85
Plant response rating, Crabgrass, Large [1, 11]: 100
Crabgrass, Large plant response rating ([1]; 500 g ai/ha, visual rating, 0 to 100 scale (0 no effect, 100 complete control)): 55
Crabgrass, Large plant response rating [1, 11]: 90
Blackgrass plant response rating ([2]; Postemergence, 125 g ai/ha): 10
Plant response rating, Blackgrass ([2]; Postemergence, 500 g ai/ha): 10
Ducksalad plant response rating [3]: 80
Plant response rating (0 = no effect, 100 = complete control), Cocklebur ([4]; 62 g ai/ha, preemergence): 0
Plant response rating, Cocklebur [4, 12]: 0
Plant response rating, Cocklebur [4, 13]: 0
Cocklebur plant response rating [4, 14]: 90
Plant response rating, Cocklebur [4, 15]: 70
Plant response rating, Cocklebur [4, 16]: 70
Cocklebur plant response rating [4, 17]: 100
Plant response rating, Cocklebur [4, 18]: 50
Plant response rating (0 = no effect, 100 = complete control), Foxtail, Giant ([5]; 62 g ai/ha, preemergence): 40
Plant response rating, Foxtail, Giant [5, 12]: 70
Plant response rating, Foxtail, Giant [5, 13]: 80
Foxtail, Giant plant response rating ([5]; Postemergence, scale 0 to 100): 70
Plant response rating, Foxtail, Giant [5, 15]: 60
Plant response rating, Foxtail, Giant [5, 16]: 60
Foxtail, Giant plant response rating [5, 19]: 90
Plant response rating, Foxtail, Giant [5, 18]: 60
Plant response rating (0 = no effect, 100 = complete control), Johnsongrass ([6]; 62 g ai/ha, preemergence): 20
Plant response rating, Johnsongrass [6, 12]: 100
Plant response rating, Johnsongrass [6, 13]: 100
Johnsongrass plant response rating ([6]; Postemergence, scale 0 to 100): 90
Plant response rating, Johnsongrass [6, 15]: 30
Plant response rating, Johnsongrass [6, 16]: 90
Johnsongrass plant response rating [6, 19]: 100
Plant response rating, Johnsongrass [6, 18]: 30
Plant response rating (0 = no effect, 100 = complete control), Ragweed ([7]; 62 g ai/ha, preemergence): 80
Plant response rating, Ragweed [7, 12]: 80
Plant response rating, Ragweed [7, 13]: 100
Ragweed plant response rating ([7]; Postemergence, scale 0 to 100): 90
Plant response rating, Ragweed [7, 16]: 80
Ragweed plant response rating [7, 19]: 100
Plant response rating, Ragweed [7, 18]: 70
Plant response rating (0 = no effect, 100 = complete control), Sunflower ([8]; 62 g ai/ha, preemergence): 0
Plant response rating, Sunflower [8, 12]: 0
Plant response rating, Sunflower [8, 13]: 10
Sunflower plant response rating [8]: 40
Rice plant response rating ([9]; 62 g ai/ha, scale 0 to 100 (0 no effect, 100 complete control)): 0
Rice plant response rating ([9]; 125 g ai/ha, scale of 0 to 100, 0 is no effect, 100 is complete control): 20
Plant response rating, Rice ([9]; 250 g ai/ha, scale 0 to 100 (0 no effect, 100 complete control)): 20
Plant response rating, Rice ([9]; 500 g ai/ha, scale 0 to 100 (0 no effect, 100 complete control)): 50

C#CCn1nc(C(C)(C)C)cc1C(=O)Nc1cccc(C(=O)NCC)c1 [Compound 50]
Rice plant response rating ([10]; Preemergence, 500 g ai/ha, scale 0 to 100): 50
Plant response rating, Rice ([10]; preemergence, 125 g ai/ha, 0 to 100 scale, 0 is no effect, 100 is complete control): 10
Plant response rating, Blackgrass ([2]; Postemergence, 500 g ai/ha): 30
Blackgrass plant response rating ([2]; postemergence, 125 g ai/ha, visual rating): 20
Ducksalad plant response rating [3]: 70
Plant response rating (0 = no effect, 100 = complete control), Cocklebur ([4]; 62 g ai/ha, preemergence): 0
Plant response rating, Cocklebur [4, 12]: 10
Plant response rating, Cocklebur [4, 13]: 80
Cocklebur plant response rating [4, 14]: 10
Plant response rating, Cocklebur [4, 15]: 10
Plant response rating, Cocklebur [4, 16]: 10
Cocklebur plant response rating [4, 17]: 80
Plant response rating, Cocklebur [4, 18]: 10
Plant response rating (0 = no effect, 100 = complete control), Foxtail, Giant ([5]; 62 g ai/ha, preemergence): 0
Plant response rating, Foxtail, Giant [5, 12]: 0
Plant response rating, Foxtail, Giant [5, 13]: 0
Foxtail, Giant plant response rating ([5]; Postemergence, scale 0 to 100): 0
Plant response rating, Foxtail, Giant [5, 15]: 0
Plant response rating, Foxtail, Giant [5, 16]: 0
Foxtail, Giant plant response rating [5, 19]: 10
Plant response rating, Foxtail, Giant [5, 18]: 0
Plant response rating (0 = no effect, 100 = complete control), Johnsongrass ([6]; 62 g ai/ha, preemergence): 0
Plant response rating, Johnsongrass [6, 13]: 0
Johnsongrass plant response rating ([6]; Postemergence, scale 0 to 100): 0
Plant response rating, Johnsongrass [6, 15]: 0
Plant response rating, Johnsongrass [6, 16]: 0
Johnsongrass plant response rating [6, 19]: 0
Plant response rating, Johnsongrass [6, 18]: 0
Plant response rating (0 = no effect, 100 = complete control), Ragweed ([7]; 62 g ai/ha, preemergence): 10
Plant response rating, Ragweed [7, 12]: 40
Plant response rating, Ragweed [7, 13]: 80
Ragweed plant response rating ([7]; Postemergence, scale 0 to 100): 85
Plant response rating, Ragweed [7, 16]: 85
Ragweed plant response rating [7, 19]: 100
Plant response rating, Ragweed [7, 18]: 80
Plant response rating (0 = no effect, 100 = complete control), Sunflower ([8]; 62 g ai/ha, preemergence): 0
Plant response rating, Sunflower [8, 12]: 0
Plant response rating, Sunflower [8, 13]: 0
Sunflower plant response rating [8]: 0

CCc1nn(C(C)(C)C)cc1C(=O)Nc1cccc(C(=O)N(CC)CC)c1 [Compound 182, N-[3-[(diethylamino)carbonyl]phenyl]-1-(1,1-dimethylethyl)-3-ethyl-1H-pyrazole-4-carboxamide]
plant injury at 125 g/ha ([10]; Oryza sativa, pre-emergence, 336 h, 125 g ai/ha, 0 = no effect, 100 = complete control, read-out: Rice plant response rating (0 to 100 scale)): 0%
plant injury at 500 g/ha ([10]; Oryza sativa, pre-emergence, 336 h, 500 g ai/ha, visual rating 0-100, 0 no effect, 100 complete control, read-out: Plant response rating, Rice): 50%
pest or weed control at 125 g/ha ([2]; Alopecurus myosuroides, post-emergence, 336 h, postemergence, 125 g ai/ha, visual rating, read-out: Blackgrass plant response rating): 0%
pest or weed control at 500 g/ha ([2]; Alopecurus myosuroides, post-emergence, 336 h, postemergence, 500 g ai/ha, visual rating, read-out: Blackgrass plant response rating): 0%
pest or weed control at 1000 g/ha ([3]; Heteranthera limosa, 336 h, read-out: Ducksalad plant response rating): 60%
pest or weed control at 62 g/ha ([4]; Xanthium strumarium, pre-emergence, 312 h, 62 g ai/ha, preemergence, scale 0 to 100, read-out: Plant response rating, Cocklebur): 0%
pest or weed control at 125 g/ha ([4]; Xanthium strumarium, pre-emergence, 312 h, 125 g ai/ha, scale 0 (no effect) to 100 (complete control), visual, 12 to 14 days, read-out: Plant response rating, Cocklebur): 0%
pest or weed control at 250 g/ha ([4]; Xanthium strumarium, pre-emergence, 312 h, 250 g ai/ha, scale 0 to 100 (0 no effect, 100 complete control), visual, 12 to 14 days, read-out: Plant response rating, Cocklebur): 0%
pest or weed control at 500 g/ha ([4]; Xanthium strumarium, pre-emergence, 312 h, Preemergence, 500 g ai/ha, scale 0 to 100, 0 no effect, 100 complete control, read-out: Cocklebur plant response rating): 0%
Foxtail, Giant plant response rating [5, 19]: 60
pest or weed control at 62 g/ha ([5]; Setaria faberi, pre-emergence, 312 h, 62 g ai/ha, preemergence, scale 0 to 100, read-out: Plant response rating, Foxtail, Giant): 0%
pest or weed control at 125 g/ha ([5]; Setaria faberi, pre-emergence, 312 h, 125 g ai/ha, scale 0 (no effect) to 100 (complete control), visual, 12 to 14 days, read-out: Plant response rating, Foxtail, Giant): 0%
pest or weed control at 250 g/ha ([5]; Setaria faberi, pre-emergence, 312 h, 250 g ai/ha, scale 0 to 100 (0 no effect, 100 complete control), visual, 12 to 14 days, read-out: Plant response rating, Foxtail, Giant): 60%
Johnsongrass plant response rating [6, 19]: 75
pest or weed control at 62 g/ha ([6]; Sorghum halepense, pre-emergence, 62 g ai/ha, preemergence, scale 0 to 100, read-out: Plant response rating, Johnsongrass): 0%
pest or weed control at 125 g/ha ([6]; Sorghum halepense, pre-emergence, 125 g ai/ha, scale 0 (no effect) to 100 (complete control), visual, 12 to 14 days, read-out: Plant response rating, Johnsongrass): 35%
pest or weed control at 62 g/ha ([7]; Ambrosia artemisiifolia, pre-emergence, 62 g ai/ha, preemergence, scale 0 to 100, read-out: Plant response rating, Ragweed): 20%
pest or weed control at 125 g/ha ([7]; Ambrosia artemisiifolia, pre-emergence, 125 g ai/ha, scale 0 (no effect) to 100 (complete control), visual, 12 to 14 days, read-out: Plant response rating, Ragweed): 20%
Ragweed plant response rating [7, 19]: 65
pest or weed control at 62 g/ha ([8]; Helianthus annuus, pre-emergence, 62 g ai/ha, preemergence, scale 0 to 100, read-out: Plant response rating, Sunflower): 0%
pest or weed control at 125 g/ha ([8]; Helianthus annuus, pre-emergence, 125 g ai/ha, scale 0 (no effect) to 100 (complete control), visual, 12 to 14 days, read-out: Plant response rating, Sunflower): 0%
Sunflower plant response rating [8]: 0
